How the values were obtained:
[1] = target: Butyrylcholinesterase (BuChE) (Equus caballus, UniProt P81908); assay: Ellman's assay, purified enzyme from equine serum; format: biochemical
[2] = target: Acetylcholinesterase (AChE) (Electrophorus electricus, UniProt O42275); assay: Ellman's assay, purified enzyme from electric eel; format: biochemical
Chain of Acetylcholinesterase (AChE) (O42275 24-633): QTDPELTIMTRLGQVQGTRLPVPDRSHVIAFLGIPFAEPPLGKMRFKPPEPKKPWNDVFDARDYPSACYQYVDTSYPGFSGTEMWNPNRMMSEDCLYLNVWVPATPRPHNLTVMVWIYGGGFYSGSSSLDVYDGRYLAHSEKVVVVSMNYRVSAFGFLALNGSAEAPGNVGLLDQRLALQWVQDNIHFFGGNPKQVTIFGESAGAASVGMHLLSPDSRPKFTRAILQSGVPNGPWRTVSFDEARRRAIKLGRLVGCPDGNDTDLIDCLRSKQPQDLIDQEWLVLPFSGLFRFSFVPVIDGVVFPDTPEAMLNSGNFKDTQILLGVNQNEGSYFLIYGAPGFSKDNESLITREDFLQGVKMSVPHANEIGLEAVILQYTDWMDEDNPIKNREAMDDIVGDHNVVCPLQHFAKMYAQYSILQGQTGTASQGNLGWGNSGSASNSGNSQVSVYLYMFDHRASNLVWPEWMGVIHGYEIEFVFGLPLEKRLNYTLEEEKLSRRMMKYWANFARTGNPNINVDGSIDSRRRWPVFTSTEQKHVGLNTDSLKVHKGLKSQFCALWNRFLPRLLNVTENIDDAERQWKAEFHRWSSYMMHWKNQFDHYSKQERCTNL

Chain of Butyrylcholinesterase (BuChE) (P81908 whole entry): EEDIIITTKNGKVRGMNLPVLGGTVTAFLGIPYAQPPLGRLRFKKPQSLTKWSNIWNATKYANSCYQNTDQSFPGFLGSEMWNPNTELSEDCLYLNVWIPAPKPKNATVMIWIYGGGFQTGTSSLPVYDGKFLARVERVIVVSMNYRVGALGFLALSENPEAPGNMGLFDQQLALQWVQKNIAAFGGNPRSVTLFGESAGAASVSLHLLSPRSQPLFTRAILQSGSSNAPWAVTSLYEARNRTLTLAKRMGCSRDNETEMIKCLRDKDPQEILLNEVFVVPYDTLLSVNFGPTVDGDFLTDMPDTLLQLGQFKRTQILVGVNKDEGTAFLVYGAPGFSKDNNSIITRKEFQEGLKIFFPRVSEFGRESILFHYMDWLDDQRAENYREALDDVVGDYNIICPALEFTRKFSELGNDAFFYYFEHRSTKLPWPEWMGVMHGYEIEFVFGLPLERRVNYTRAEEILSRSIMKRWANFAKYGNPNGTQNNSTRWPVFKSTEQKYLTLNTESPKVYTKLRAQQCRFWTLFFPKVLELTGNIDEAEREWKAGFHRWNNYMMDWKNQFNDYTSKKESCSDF

With `COc1cc2ccc(=O)oc2cc1O` [scopoletin, 6-methoxy-7-hydroxycoumarin] the IC50 [1] was 9.11 µM and the IC50 [2] was 5.34 µM.
